Results taken from publication PMC3914206.

Experiments:
[1] = molecular target: T1, panel of 442 kinases (Homo sapiens, UniProt P51812); assay type: binding; details: Compound Concentration 10 µM
T1 construct: purchased KINOMEscan
Description: (§1) We assessed the selectivity of members of this scaffold using the KINOMEscan methodology across a near comprehensive panel of 442 kinases [[18,27]].

[2] = molecular target: T2, panel of 442 kinases (Homo sapiens, UniProt Q8IVH8); assay type: binding; details: Compound Concentration 10 µM
T2 construct: purchased KINOMEscan
T2 sequence (Q8IVH8 1-894): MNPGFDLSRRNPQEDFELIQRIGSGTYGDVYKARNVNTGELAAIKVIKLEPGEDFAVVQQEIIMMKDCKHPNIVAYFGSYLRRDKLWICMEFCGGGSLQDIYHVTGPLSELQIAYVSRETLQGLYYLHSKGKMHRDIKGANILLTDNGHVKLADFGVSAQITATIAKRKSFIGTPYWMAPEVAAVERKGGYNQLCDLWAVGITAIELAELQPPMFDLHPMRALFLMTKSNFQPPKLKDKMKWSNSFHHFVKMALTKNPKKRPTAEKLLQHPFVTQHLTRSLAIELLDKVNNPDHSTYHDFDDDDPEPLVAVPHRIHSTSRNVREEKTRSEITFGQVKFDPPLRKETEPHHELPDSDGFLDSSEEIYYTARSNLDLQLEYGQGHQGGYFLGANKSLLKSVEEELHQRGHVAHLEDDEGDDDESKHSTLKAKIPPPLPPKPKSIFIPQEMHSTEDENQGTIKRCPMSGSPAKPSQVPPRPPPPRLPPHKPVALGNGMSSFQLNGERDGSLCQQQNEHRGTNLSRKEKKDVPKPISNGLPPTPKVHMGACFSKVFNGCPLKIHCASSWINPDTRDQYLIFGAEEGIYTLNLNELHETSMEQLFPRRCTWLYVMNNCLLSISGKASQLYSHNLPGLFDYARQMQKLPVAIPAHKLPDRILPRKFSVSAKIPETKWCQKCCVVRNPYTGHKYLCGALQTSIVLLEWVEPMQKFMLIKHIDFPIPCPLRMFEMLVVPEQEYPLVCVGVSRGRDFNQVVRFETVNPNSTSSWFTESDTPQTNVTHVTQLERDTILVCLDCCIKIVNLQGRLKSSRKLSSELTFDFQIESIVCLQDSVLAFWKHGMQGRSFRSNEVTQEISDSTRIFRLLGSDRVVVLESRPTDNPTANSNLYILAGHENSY
Description: as §1

T1 sequence (P51812 whole entry): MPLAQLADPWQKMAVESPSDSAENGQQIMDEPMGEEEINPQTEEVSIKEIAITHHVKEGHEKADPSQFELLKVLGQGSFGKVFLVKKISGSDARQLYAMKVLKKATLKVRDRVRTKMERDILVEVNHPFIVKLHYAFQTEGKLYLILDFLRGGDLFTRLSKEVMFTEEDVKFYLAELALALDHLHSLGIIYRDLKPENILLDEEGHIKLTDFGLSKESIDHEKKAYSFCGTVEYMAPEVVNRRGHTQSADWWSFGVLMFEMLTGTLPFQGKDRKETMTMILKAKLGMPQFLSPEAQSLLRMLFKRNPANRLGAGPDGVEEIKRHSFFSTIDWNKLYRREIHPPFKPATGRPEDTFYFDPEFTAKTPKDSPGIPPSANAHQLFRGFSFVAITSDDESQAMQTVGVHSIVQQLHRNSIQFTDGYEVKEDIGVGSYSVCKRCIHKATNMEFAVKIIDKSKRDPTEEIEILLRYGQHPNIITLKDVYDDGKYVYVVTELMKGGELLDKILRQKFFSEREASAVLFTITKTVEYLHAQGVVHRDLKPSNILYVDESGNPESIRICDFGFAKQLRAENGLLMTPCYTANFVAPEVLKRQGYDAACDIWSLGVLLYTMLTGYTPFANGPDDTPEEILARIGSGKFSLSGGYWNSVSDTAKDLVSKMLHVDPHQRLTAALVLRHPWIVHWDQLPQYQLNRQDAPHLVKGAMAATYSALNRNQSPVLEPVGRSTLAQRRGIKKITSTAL

COc1cc(C(=O)N2CCC(N3CCN(C)CC3)CC2)ccc1Nc1ncc2c(n1)N(C)c1ccccc1C(=O)N2C [15 (LRRK2-IN-1)]
KINOMEscan: RSK2(Kin.Dom.1-N-terminal) [1]: 77 | KINOMEscan: MAP4K3 [2]: 71

COc1cc(C(=O)N2CCC(N3CCN(C)CC3)CC2)ccc1Nc1ncc2c(n1)N(C1CCCC1)c1ccccc1C(=O)N2C [Compound 25, 11-cyclopentyl-2-((2-methoxy-4-(4-(4-methylpiperazin-1-yl)piperidine-1-carbonyl)phenyl)amino)-5-methyl-5H-benzo[e]pyrimido[5,4-b][1,4]diazepin-6(11H)-one]
KINOMEscan: RSK2(Kin.Dom.1-N-terminal) [1]: 100 | KINOMEscan: MAP4K3 [2]: 100

CCOc1cc(C(=O)N2CCC(N3CCN(C)CC3)CC2)ccc1Nc1ncc2c(n1)N(C1CCCC1)c1ccccc1C(=O)N2C [Compound 26]
KINOMEscan: RSK2(Kin.Dom.1-N-terminal) [1]: 100 | KINOMEscan: MAP4K3 [2]: 98
